Consider four molecules from US11833162B2, “Macrocyclic derivatives, process for preparing same and pharmaceutical compositions containing same” (LES LABORATOIRES SERVIER, priority 2017, dated 2023).

One test has as its target Bcl-2 protein (histag-Bcl-2, UniProtKB P10415) (Homo sapiens, UniProt P10415). The test can be described thus: Inhibition of Bcl-2 by the fluorescence polarisation technique. The class given is binding. Conditions: fluorescence polarisation, 2 hours incubation; read-out: IC50 (μM) Bcl-2 FP. As to the method:
The fluorescence polarisation tests were carried out on microplates (384 wells). The Bcl-2 protein, labelled (histag-Bcl-2 such that Bcl-2 corresponds to the UniProtKB® primary accession number: P10415), at a final concentration of 5×10^−9M, is mixed with a fluorescent peptide (Fluorescein-REIGAQLRRMADDLNAQY), at a final concentration of 1.00×10^−9M in a buffer solution (Hepes 10 mM, NaCl 150 mM, Tween20 0.05%, pH 7.4), in the presence or absence of increasing concentrations of test compounds. After incubation for 2 hours, the fluorescence polarisation is measured.
(Polarisation of emitted light reports the rotation of a fluorescent probe.)

Test [1] relates to cleaved (activated) form of caspase 3 in RS4; 11 tumour lysates. The test is described as follows: Quantification of the cleaved form of caspase 3 in vivo (MSD ELISA) in RS4; 11 xenograft. Also on record: species or system mice (SCID strain); key: ratio of cleaved caspase 3, treated vs control mice. Conditions: oral, 2 hours' treatment. As to the method:
The ability of the compounds of the invention to activate caspase 3 is evaluated in a xenograft model of RS4; 11 leukaemia cells. 1×10^7 RS4; 11 cells are grafted sub-cutaneously into immunosuppressed mice (SCID strain). 25 to 30 days after the graft, the animals are treated orally with the various compounds. After 2 hours' treatment, the tumour masses are recovered and lysed, and the cleaved (activated) form of caspase 3 is quantified in the tumour lysates. This quantification is carried out using the “Meso Scale Discovery (MSD) ELISA platform” test, which specifically assays the cleaved form of caspase 3. It is expressed in the form of an activation factor corresponding to the ratio between the quantity of cleaved caspase 3 in the treated mice divided by the quantity of cleaved caspase 3 in the control mice.
(In general: ELISA stands for enzyme-linked immunosorbent assay.)

Test [2] concerns RS4; 11 leukaemia tumour line. The test can be described thus: In vitro cytotoxicity, Microculture Tetrazolium Assay (MTT). The test is classed as cell-based. The conditions noted are these: Homo sapiens, RS4-11, 48 h, 11 cells, 48 hours exposure. As to the method: The cytotoxicity studies were carried out on the RS4; 11 leukaemia tumour line.
The cells are distributed onto microplates and exposed to the test compounds for 48 hours.
The cell viability is then quantified by a colorimetric assay, the Microculture Tetrazolium Assay (Cancer Res., 1987, 47, 939-942).

Sequence of Bcl-2 protein (P10415 whole entry): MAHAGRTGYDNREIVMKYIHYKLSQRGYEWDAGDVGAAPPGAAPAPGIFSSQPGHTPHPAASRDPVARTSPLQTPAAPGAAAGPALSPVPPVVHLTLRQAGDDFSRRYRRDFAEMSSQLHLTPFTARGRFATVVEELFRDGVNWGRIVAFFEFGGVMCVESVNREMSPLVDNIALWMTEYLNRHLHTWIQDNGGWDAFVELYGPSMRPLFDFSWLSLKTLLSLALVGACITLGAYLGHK

In the case of `Cc1c2cc(n1C)-c1cc(Cl)ccc1C(=O)N1CCc3c(cccc3OCCCc3c(cc(C#N)n3C)N(c3ccc(O)cc3)C2=O)C1` [Example 18, 11-Chloro-4-(4-hydroxyphenyl)-1,7,8-trimethyl-5,14-dioxo-4,5,8,16,17,23,24,25-octahydro-1H,14H-15,18-methano-6,9-(metheno)dibenzo[b,h]-pyrrolo[3,2-p][1,6,11,15]oxatriazacycloicosine-2-carbonitrile], the IC50 at Bcl-2 protein stood at 0.00365 µM; in test [2], 8.36 nM. The “Activation factor ± SEM (versus control)” value in test [1] (6.25 mg/kg, PEG/EtOH/Phosal) is 7.8 ± 2.5; in test [1] (12.5 mg/kg, PEG/EtOH/Phosal), 31.7 ± 6.0.

In the case of `Cc1c2cc(n1C)-c1cc(Cl)ccc1C(=O)N1CCc3c(cccc3OCCCc3c(cnn3C)N(c3ccc(O)cc3)C2=O)C1` [Example 6, 11-Chloro-4-(4-hydroxyphenyl)-1,7,8-trimethyl-4,16,17,23,24,25-hexahydro-1H,14H-15,18-methano-6,9-(metheno)dibenzo[b,h]pyrazolo[4,3-p]-[1,6,11,15]oxatriazacycloicosine-5,14(8H)-dione], the IC50 at Bcl-2 protein was found to be 0.0052 µM; in test [2], 26.6 nM. Besides, the “Activation factor ± SEM (versus control)” value is reported as 6.8 ± 4.2 in test [1] (12.5 mg/kg, PEG/EtOH/Watcr) and 32.3 ± 9.1 in test [1] (25 mg/kg, PEG/EtOH/Water).

For the molecule `Cc1c(N2C(=O)c3cc(n(C)c3C)-c3cc(Cl)ccc3C(=O)N3CCCC(CCOc4cc(O)ccc42)C3)cc(C#N)n1C` (stereo not drawn) [Example 29, 4-[16-Chloro-3-hydroxy-19,20-dimethyl-13,22-dioxo-6,7,8,9,10,11,19,22-octahydro-13H,23H-8,12-methano-21,18-(metheno)dibenzo[b,j][1,4,8,13]oxatriazacyclo-nonadecin-23-yl]-1,5-dimethyl-1H-pyrrole-2-carbonitrile], the “Activation factor ± SEM (versus control)” value in test [1] (25 mg/kg, PEG/EtOH/Phosal) came out at 13.3 ± 6.3; in test [1] (50 mg/kg, PEG/EtOH/Phosal), 54.4 ± 9.7. This molecule came in with an IC50 in test [2] of 70.5 nM.

On to `Cc1c2cc(n1C)-c1cc(Cl)ccc1C(=O)N1CCc3c(cccc3OCCc3c(cnn3C)N(c3ccc(O)cc3)C2=O)C1` [Example 16, 11-chloro-4-(4-hydroxyphenyl)-1,7,8-trimethyl-1,4,16,17,23,24-hexahydro-14H-15,18-methano-6,9-(metheno)dibenzo[l,r]pyrazolo[3,4-d][1,6,10,15]oxatriaza-cyclononadecine-5,14(8H)-dione], for which the IC50 on Bcl-2 protein is 0.00555 µM; in test [2], 53.3 nM. The “Activation factor ± SEM (versus control)” value is listed as 31.7 ± 2.9 in test [1] (25 mg/kg, PEG/EtOH/Water) and 75.1 ± 13.2 in test [1] (50 mg/kg, PEG/EtOH/Water).

By IC50 is commonly meant the midpoint of a concentration-inhibition curve.
